In the NIST ThermoML archive (doi:10.1021/je900530f):
Numbers after ± are expanded uncertainties.

Conditions: Liquid

vapor or sublimation pressure (313.15 K) [kPa] | vapor or sublimation pressure (323.15 K) [kPa] | vapor or sublimation pressure (333.15 K) [kPa] | vapor or sublimation pressure (338.15 K) [kPa] | Structure (SMILES)
2.13 ± 0.14 | 4.16 ± 0.16 | 7.57 ± 0.2 | 9.99 ± 0.23 | CCCC(C)O (stereo not given) [pentan-2-ol]
5.83 ± 0.18 | 10.48 ± 0.24 | 18.2 ± 0.33 | – | CCC(C)O (stereo not given) [butan-2-ol]
37.04 ± 0.55 | 53.91 ± 0.74 | 76.32 ± 1 | 89.92 ± 1.2 | CCCCCC [hexane]

Structure (SMILES) | vapor or sublimation pressure (313.15 K) [kPa] | vapor or sublimation pressure (323.15 K) [kPa] | vapor or sublimation pressure (333.15 K) [kPa] | vapor or sublimation pressure (338.15 K) [kPa]
CCC(C)(C)O [2-methylbutan-2-ol] | 5.69 ± 0.24 | 10.41 ± 0.32 | 17.87 ± 0.43 | 22.87 ± 0.51
